Where two headings read alike, the source gives them in different places.
How the values were obtained:
[1] = rcm bond, Grubbs II, toluene, 2.0 mM, 80.0 °C
HSP90 = HSP90 (Homo sapiens, UniProt P07900); test: HSP90 affinity, competition assay with geldanamycin; type: binding
HCC1954 tumor cells = test: Cytotoxicity, MTS assay, HCC1954; type: cell-based; settings: Homo sapiens, 72 hours
Procedure: (§1) Tumor cells were grown as adherent monolayers at 37° C. in a humidified atmosphere (5% CO2, 95% air). The culture medium was RPMI 1640 containing 2 mM L-glutamine (Ref BE12-702F, Cambrex, Verviers, Belgium) and supplemented with 10% fetal bovine serum (Ref DE14-801E, Cambrex). For experimental use, the adherent tumour cells were detached from the culture flask by a 5-minute treatment with trypsin-versene (Ref O2-007E, Cambrex), diluted in Hanks' medium without calcium or magnesium (Ref BE10-543F, Cambrex) and neutralized by addition of complete culture medium. Before use, cells were counted in a hemocytometer and their viability were assessed by 0.25% trypan blue exclusion. Mycoplasma detection was performed using the MycoAlert® Mycoplasma Detection Kit (Ref LT07-318, Cambrex) in accordance with the manufacturer instructions. The MycoAlert®Assay is a selective biochemical test that exploits the activity of mycoplasmal enzymes. The viable mycoplasma are lysed and the enzymes react with the MycoAlert® substrate catalyzing the conversion of ADP to ATP. By measuring the level of ATP in a sample both before and after the addition of the MycoAlert® substrate a ratio can be obtained which is indicative of the presence or absence of mycoplasma. The mycoplasma test was assayed in duplicate from the culture supernatants of the cell lines and compared to negative and positive controls (MycoAlert® Assay Control Set, Ref LT07-518, Cambrex) (Internal Standard Operating Procedure No TEC-007/002). Both HCC1954 and SK-BR-3 tumour cells (5,000 cells per well) were plated in 96-well flat-bottom microtitration plates (Ref 167008, Nunc, Dutscher, Brumath, France) and incubated at 37° C. for 24 hours before treatment in 190 μl of drug-free culture medium supplemented with 10% FBS. Both HCC1954 and SK-BR-3 tumour cell lines were incubated for 72 hours with […], in ¼ dilution steps, of the test substances (ranging from […]) to be tested as well as paclitaxel (ranging from 10^−7 to 10^−12 M). The cells (190 μl) will be incubated in a 200 μl final volume of culture medium supplemented with 10% FBS containing test substances at 37° C. under 5% CO2. One experiment is performed, each concentration being issued from quadruplicate. Control cells are treated with corresponding vehicle alone. At the end of treatments, the cytotoxic activity is evaluated by a MTS assay. […] Like MTT, MTS is bioreduced by cells into a formazan product that is directly soluble in culture medium without processing, unlike MTT.
(§2) At the end of the cells treatment, 40 μl of a 0.22 μm filtered freshly combined solution of MTS (20 ml at 2 mg/ml, Ref G1111A, Promega, Charbonnières, France) and PMS (1 ml at 0.92 mg/ml, Ref P9625, Sigma) in Dulbecco's Phosphate Buffered Saline (DPBS, Ref 17-513F, Cambrex), were added in each well. Culture plates were incubated for 2 h at 37° C. Absorbency (OD) will be measured at 490 nm in each well using VICTOR^3™ 1420 multilabeled counter (Wallac, PerkinElmer, Courtaboeuf, France).

SK-BR-3 tumor cells = test: Cytotoxicity, MTS assay, SK-BR-3; type: cell-based; settings: Homo sapiens, 72 hours
Procedure: as §1, §2

SRC = molecular target: T1, SRC (Homo sapiens, UniProt P12931); test: Radiometric protein kinase assay, SRC; type: biochemical; settings: 1 μM ATP; read-out: Inhibitory activity (IC50:μM) SRC
T1 construct: host or cells: Sf9 insect cells (baculovirus)
T1 sequence (P12931 whole entry): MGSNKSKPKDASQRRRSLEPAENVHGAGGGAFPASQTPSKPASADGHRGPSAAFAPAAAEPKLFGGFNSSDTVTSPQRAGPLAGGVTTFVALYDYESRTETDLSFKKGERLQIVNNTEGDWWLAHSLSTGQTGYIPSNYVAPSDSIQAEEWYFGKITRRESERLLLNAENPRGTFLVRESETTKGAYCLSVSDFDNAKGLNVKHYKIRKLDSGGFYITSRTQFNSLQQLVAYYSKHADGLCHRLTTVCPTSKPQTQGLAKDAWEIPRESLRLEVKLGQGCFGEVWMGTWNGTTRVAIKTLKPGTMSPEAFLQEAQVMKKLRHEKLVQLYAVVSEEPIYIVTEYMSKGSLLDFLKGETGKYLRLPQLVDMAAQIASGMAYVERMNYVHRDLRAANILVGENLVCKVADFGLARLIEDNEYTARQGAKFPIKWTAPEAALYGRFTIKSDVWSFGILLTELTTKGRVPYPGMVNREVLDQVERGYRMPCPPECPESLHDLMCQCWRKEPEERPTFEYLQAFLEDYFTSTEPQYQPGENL
Text: (§3) All protein kinases were expressed in Sf9 insect cells as human recombinant GST-fusion proteins or His-tagged proteins by means of the baculovirus expression system. Kinases were purified by affinity chromatography using either GSH-agarose (Sigma) or Ni-NTH-agarose (Qiagen). The purity of each kinase was checked by SDS-PAGE/silver staining and the identity of each kinase was verified by western blot analysis with kinase specific antibodies or by mass spectroscopy.
(§4) A radiometric protein kinase assay (^33PanQinase® Activity Assay) was used for measuring the kinase activity of the 24 protein kinases. All kinase assays were performed in 96-well FlashPlates™ from Perkin Elmer (Boston, Mass., USA) in a 50 μl reaction volume. The reaction cocktail was pipetted in 4 steps in the following order: • 20 μl of assay buffer • 5 μl of ATP solution (in H2O) • 5 μl of test compound (in 10% DMSO) • 10 μl of substrate/10 […] of enzyme solution (premixed)
(§5) The assay for all enzymes contained 60 mM HEPES-NaOH, pH 7.5, 3 mM MgCl2, 3 mM MnCl2, 3 μM Na-orthovanadate, 1.2 mM DTT, 50 μg/ml PEG20000, 1 μM [γ-^33P]-ATP (approx. 5×10^05 cpm per well).
(§6) For the 24 kinase assays, the following amounts of enzyme and substrate were used per well:
(§7) The reaction cocktails were incubated at 30° C. for 80 minutes. The reaction was stopped with 50 μl of 2% (v/v) H3PO4, plates were aspirated and washed two times with 200 μl of 0.9% (w/v) NaCl or 200 μl H2O. Incorporation of ^33Pi was determined with a microplate scintillation counter (Microbeta Trilux, Wallac).
(§8) The median value of the counts in column 1 (n=8) of each assay plate was defined as “low control”. This value reflects unspecific binding of radioactivity to the plate in the absence of a protein kinase but in the presence of the substrate. The median value of the counts in column 7 of each assay plate (n=8) was taken as the “high control”, i.e. full activity in the absence of any inhibitor. The difference between high and low control was taken as 100% activity.
(§9) As part of the data evaluation the low control value from a particular plate was subtracted from the high control value as well as from all 80 “compound values” of the corresponding plate. The residual activity (in %) for each well of a particular plate was calculated by using the following formula: Res. Activity (%)=100×[(cpm of compound−low control)/(high control−low control)]
(§10) The residual activities for each concentration and the compound IC50 values were calculated using Quattro Workflow V2.1.0.0 (Quattro Research GmbH, Munich, Germany; www.quattro-research.com). The model used was “Sigmoidal response (variable slope)” with parameters “top” fixed at 100% and “bottom” at 0%.

Aurora-A = molecular target: T2, Aurora-A (Homo sapiens, UniProt O14965); test: Radiometric protein kinase assay, Aurora-A; type: biochemical; settings: 1 μM ATP; read-out: Inhibitory activity (IC50:μM) Aurora-A
T2 construct: host or cells: Sf9 insect cells (baculovirus)
T2 sequence (O14965 1-403): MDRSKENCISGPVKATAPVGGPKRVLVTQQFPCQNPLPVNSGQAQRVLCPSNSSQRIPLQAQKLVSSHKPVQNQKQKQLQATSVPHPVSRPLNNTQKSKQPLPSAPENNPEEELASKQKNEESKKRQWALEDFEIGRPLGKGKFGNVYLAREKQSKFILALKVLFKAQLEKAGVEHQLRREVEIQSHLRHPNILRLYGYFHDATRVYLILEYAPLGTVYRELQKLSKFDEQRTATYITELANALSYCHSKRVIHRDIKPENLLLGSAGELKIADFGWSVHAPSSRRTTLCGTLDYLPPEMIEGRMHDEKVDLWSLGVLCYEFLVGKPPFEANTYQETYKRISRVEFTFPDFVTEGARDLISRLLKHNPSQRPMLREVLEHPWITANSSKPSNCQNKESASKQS
Text: as §3, §4, §5, §6, §7, §8, §9, §10

IGF1-R = molecular target: T3, IGF1-R (Homo sapiens, UniProt P08069); test: Radiometric protein kinase assay, IGF1-R; type: biochemical; settings: 1 μM ATP; read-out: Inhibitory activity (IC50:μM) IGF1-R
T3 construct: host or cells: Sf9 insect cells (baculovirus)
T3 sequence (P08069 31-1367): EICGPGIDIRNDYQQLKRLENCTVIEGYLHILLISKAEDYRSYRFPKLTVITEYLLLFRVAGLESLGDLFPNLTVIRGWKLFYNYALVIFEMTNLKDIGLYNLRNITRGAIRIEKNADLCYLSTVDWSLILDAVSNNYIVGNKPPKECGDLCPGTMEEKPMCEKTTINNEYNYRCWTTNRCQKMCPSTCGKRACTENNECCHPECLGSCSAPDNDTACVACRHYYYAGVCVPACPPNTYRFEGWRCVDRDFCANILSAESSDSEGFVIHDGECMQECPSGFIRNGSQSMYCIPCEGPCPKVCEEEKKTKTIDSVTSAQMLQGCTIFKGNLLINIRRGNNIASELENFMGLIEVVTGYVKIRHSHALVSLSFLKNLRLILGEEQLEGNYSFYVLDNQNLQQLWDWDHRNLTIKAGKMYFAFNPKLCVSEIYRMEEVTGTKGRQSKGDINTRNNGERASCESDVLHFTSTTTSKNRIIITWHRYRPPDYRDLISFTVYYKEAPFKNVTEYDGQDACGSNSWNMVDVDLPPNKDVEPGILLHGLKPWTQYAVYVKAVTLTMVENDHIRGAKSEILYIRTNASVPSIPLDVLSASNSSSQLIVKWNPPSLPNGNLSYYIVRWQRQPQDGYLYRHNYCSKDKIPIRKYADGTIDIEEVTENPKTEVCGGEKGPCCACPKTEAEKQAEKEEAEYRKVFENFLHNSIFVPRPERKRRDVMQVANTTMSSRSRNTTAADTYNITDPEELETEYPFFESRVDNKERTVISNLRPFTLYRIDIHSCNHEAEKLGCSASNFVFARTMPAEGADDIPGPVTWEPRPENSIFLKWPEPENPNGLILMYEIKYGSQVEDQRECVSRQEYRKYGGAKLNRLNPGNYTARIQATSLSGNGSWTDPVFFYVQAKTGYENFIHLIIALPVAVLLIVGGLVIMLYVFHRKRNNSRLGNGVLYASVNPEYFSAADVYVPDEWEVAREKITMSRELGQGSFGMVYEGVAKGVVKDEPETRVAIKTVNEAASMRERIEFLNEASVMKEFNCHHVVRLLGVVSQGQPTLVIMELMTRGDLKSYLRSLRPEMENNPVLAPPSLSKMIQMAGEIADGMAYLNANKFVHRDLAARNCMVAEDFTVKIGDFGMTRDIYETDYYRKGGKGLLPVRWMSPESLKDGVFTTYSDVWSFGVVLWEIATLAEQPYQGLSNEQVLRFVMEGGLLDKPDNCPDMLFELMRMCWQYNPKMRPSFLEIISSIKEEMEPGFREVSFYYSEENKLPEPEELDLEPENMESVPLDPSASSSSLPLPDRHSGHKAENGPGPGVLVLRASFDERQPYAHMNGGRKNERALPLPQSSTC
Text: as §3, §4, §5, §6, §7, §8, §9, §10

EGF-R = molecular target: T4, EGF-R (Homo sapiens, UniProt P00533); test: Radiometric protein kinase assay, EGF-R; type: biochemical; settings: 1 μM ATP; read-out: Inhibitory activity (IC50:μM) EGF-R
T4 construct: host or cells: Sf9 insect cells (baculovirus)
T4 sequence (P00533 25-1210): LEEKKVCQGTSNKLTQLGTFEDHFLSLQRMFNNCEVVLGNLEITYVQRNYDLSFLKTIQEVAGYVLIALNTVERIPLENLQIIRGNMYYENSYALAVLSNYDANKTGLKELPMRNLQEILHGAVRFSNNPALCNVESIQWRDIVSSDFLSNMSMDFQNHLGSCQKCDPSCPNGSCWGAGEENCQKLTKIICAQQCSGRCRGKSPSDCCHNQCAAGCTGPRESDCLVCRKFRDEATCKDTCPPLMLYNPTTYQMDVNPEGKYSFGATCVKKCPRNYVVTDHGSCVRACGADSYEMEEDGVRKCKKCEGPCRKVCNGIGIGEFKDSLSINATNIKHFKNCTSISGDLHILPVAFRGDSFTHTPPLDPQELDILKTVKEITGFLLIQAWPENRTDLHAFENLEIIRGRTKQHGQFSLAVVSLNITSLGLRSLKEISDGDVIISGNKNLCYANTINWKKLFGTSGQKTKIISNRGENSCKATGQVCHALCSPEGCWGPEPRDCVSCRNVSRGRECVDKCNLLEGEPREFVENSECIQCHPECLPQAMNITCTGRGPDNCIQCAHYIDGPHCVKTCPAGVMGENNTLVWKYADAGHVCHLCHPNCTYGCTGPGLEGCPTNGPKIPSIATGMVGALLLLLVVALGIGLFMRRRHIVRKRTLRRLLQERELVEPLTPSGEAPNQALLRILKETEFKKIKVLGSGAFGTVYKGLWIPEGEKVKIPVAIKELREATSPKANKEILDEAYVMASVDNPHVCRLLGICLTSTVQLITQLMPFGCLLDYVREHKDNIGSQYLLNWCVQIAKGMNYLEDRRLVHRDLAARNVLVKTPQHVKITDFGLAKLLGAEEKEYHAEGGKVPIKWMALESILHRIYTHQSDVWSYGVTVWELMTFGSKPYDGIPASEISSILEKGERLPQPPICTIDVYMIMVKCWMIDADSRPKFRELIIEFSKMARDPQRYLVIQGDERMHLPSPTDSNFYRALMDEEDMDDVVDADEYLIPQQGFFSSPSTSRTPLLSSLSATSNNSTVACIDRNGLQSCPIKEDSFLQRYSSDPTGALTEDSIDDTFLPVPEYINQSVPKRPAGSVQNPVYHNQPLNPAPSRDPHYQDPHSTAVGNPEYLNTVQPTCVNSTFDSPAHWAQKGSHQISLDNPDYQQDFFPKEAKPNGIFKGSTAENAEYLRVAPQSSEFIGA
Text: as §3, §4, §5, §6, §7, §8, §9, §10

panel of 24 kinase = test: Radiometric protein kinase assay (33PanQinase), panel of 24 kinases; type: biochemical, human; settings: at 10 μM
Text: as §3
A radiometric protein kinase assay (^33PanQinase® Activity Assay) was used for measuring the kinase activity of the 24 protein kinases.
as §5, §7, §8, §9

CCOCOc1cc(OCOCC)c2c(c1Cl)CC(=O)C=CCCC=CC[C@@H](C)OC2=O
ring closure, yield of all isomers ([1]; from C=CCCC=CC(=O)Cc1c(Cl)c(OCOCC)cc(OCOCC)c1C(=O)O[C@H](C)CC=C): 94%

CCOCOc1cc2c(c(OCOCC)c1)C(=O)O[C@H](C)CC=CCCC=CC(=O)C2
ring closure, yield of all isomers ([1]; from C=CCCC=CC(=O)Cc1cc(OCOCC)cc(OCOCC)c1C(=O)O[C@H](C)CC=C, 2 steps): 40%

C[C@@H]1CC=CCC/C=C/C(=O)Cc2c(Cl)c(OCOCC[Si](C)(C)C)cc(OCOCC[Si](C)(C)C)c2C(=O)O1
ring closure, yield of all isomers ([1]; from C=CCC/C=C/C(=O)Cc1c(Cl)c(OCOCC[Si](C)(C)C)cc(OCOCC[Si](C)(C)C)c1C(=O)O[C@H](C)CC=C, 12.0 h): 87%

C[C@@H]1CC=CCC/C=C/C(=O)Cc2c(Cl)c(O[Si](C)(C)C(C)(C)C)cc(O[Si](C)(C)C(C)(C)C)c2C(=O)O1
ring closure, yield of all isomers ([1]; from C=CCC/C=C/C(=O)Cc1c(Cl)c(O[Si](C)(C)C(C)(C)C)cc(O[Si](C)(C)C(C)(C)C)c1C(=O)O[C@H](C)CC=C, 12.0 h): 87%

CCOCOc1cc(OCOCC)c2c(c1Cl)CC(=O)C=CCCC=CCC(C)OC2=O (centres unmarked) [2-112, 1-Chloro-2,4-bis-ethoxymethoxy-7-methyl-7,8,11,12-tetrahydro-16H-6-oxa-benzocyclotetradecene-5,15-dione]
affinity for / inhibition of HSP90 (in words) (HSP90): no affinity

CCOCOc1cc2c(c(OCOCC)c1)C(=O)OC(C)CC=CCCC=CC(=O)C2 (centres unmarked) [2-120, 2,4-Bis-ethoxymethoxy-7-methyl-7,8,11,12-tetrahydro-16H-6-oxa-benzocyclotetradecene-5,15-dione]
affinity for / inhibition of HSP90 (in words) (HSP90): no affinity

O=C1OCC/C=C/CC/C=C/C(=NOCc2ccccc2)Cc2c(Cl)c(O)cc(O)c21 [2a-3]
EC50 (HCC1954 tumor cells): 3 µM
EC50 (SK-BR-3 tumor cells): 4.5 µM

O=C(CON=C1/C=C/CC/C=C/CCOC(=O)c2c(O)cc(O)c(Cl)c2C1)NCCO [2a-4]
EC50 (HCC1954 tumor cells): > 10 µM
EC50 (SK-BR-3 tumor cells): 7.5 µM

O=C1OCC/C=C\CC/C=C/C(=NOCC(=O)N2CCCCC2)Cc2c(Cl)c(O)cc(O)c21 [2a-5]
EC50 (HCC1954 tumor cells): 9.5 µM
EC50 (SK-BR-3 tumor cells): 2.5 µM

O=C1OCC/C=C/CCCC/C(=N/OCC(=O)N2CCCCC2)Cc2c(Cl)c(O)cc(O)c21 [2a-6]
EC50 (HCC1954 tumor cells): 5.2 µM
EC50 (SK-BR-3 tumor cells): > 10 µM

C=CCC/C=C/C(Cc1c(Cl)c(O)cc(O)c1C(=O)OCCC=C)=NOCC(=O)N1CCCCC1 [2a-7]
EC50 (HCC1954 tumor cells): > 10 µM
EC50 (SK-BR-3 tumor cells): > 10 µM

CNC(=O)CO/N=C1/C=C/CC/C=C/CCOC(=O)c2c(O)cc(O)c(Cl)c2C1 [2a-8]
EC50 (HCC1954 tumor cells): > 10 µM
EC50 (SK-BR-3 tumor cells): > 10 µM

C[C@@H]1C/C=C/CC/C=C/C(=N/OCC(=O)N2CCCCC2)Cc2c(Cl)c(O)cc(O)c2C(=O)O1 [2a-9]
EC50 (HCC1954 tumor cells): 0.89 µM
EC50 (SK-BR-3 tumor cells): 0.45 µM

COC1CC/C=C/CCOC(=O)c2c(O)cc(O)c(Cl)c2C/C(=N/OCC(=O)N2CCCCC2)C1 (centres unmarked) [2a-10]
EC50 (HCC1954 tumor cells): > 10 µM
EC50 (SK-BR-3 tumor cells): > 10 µM

O=C1OCC/C=C/CC/C=C/C(=NOCC(=O)N2CCCCCC2)Cc2c(Cl)c(O)cc(O)c21 [2a-11]
EC50 (HCC1954 tumor cells): 0.52 µM
EC50 (SK-BR-3 tumor cells): 0.31 µM

C[C@@H]1C/C=C/CC/C=C/C(=O)Cc2c(Cl)c(O)cc(O)c2C(=O)O1 [2a-14]
EC50 (HCC1954 tumor cells): 1.2 µM
EC50 (SK-BR-3 tumor cells): 2.8 µM

O=C1OCC/C=C/CC/C=C/C(=NOCC(=O)N2CCNCC2)Cc2c(Cl)c(O)cc(O)c21 [2a-15]
EC50 (HCC1954 tumor cells): > 10 µM
EC50 (SK-BR-3 tumor cells): > 10 µM

O=C(CON=C1/C=C/CC/C=C/CCOC(=O)c2c(O)cc(O)c(Cl)c2C1)NC1CCCCC1 [2a-16]
EC50 (HCC1954 tumor cells): 0.45 µM
EC50 (SK-BR-3 tumor cells): 0.55 µM

O=C(CON=C1/C=C/CC/C=C/CCOC(=O)c2c(O)cc(O)c(Cl)c2C1)NCc1ccccc1 [2a-17]
EC50 (HCC1954 tumor cells): 8.5 µM
EC50 (SK-BR-3 tumor cells): 3.5 µM

O=C1OCC/C=C/CC/C=C/C(=NOCC(=O)N2CCOCC2)Cc2c(Cl)c(O)cc(O)c21 [2a-18]
EC50 (HCC1954 tumor cells): > 10 µM
EC50 (SK-BR-3 tumor cells): > 10 µM

CCON=C1/C=C/CC/C=C/CCOC(=O)c2c(O)cc(O)c(Cl)c2C1 [2a-22]
EC50 (HCC1954 tumor cells): 9.8 µM
EC50 (SK-BR-3 tumor cells): 3.8 µM

COC1CC/C=C/C[C@H](c2ccccc2)OC(=O)c2c(O)cc(O)c(Cl)c2CC(=O)C1 (some centres unmarked) [A2]
IC50 (SRC): 8 µM

O=C1Cc2c(Cl)c(O)cc(O)c2C(=O)O[C@H](c2ccccc2)C/C=C/CCC(Cl)C1 (some centres unmarked) [A3]
IC50 (Aurora-A): 12 µM

O=C1/C=C/CCC2OC2C[C@H](c2ccccc2)OC(=O)c2c(O)cc(O)c(Cl)c2C1 (some centres unmarked) [A5]
IC50 (IGF1-R): 11 µM

CCOCOc1cc2c(c(OCOCC)c1)C(=O)O[C@H](c1ccccc1)C/C=C/CC/C=C/C(=O)C2 [A-1]
IC50 (SRC): 11 µM
IC50 (EGF-R): 33 µM
IC50 (IGF1-R): 23 µM

C[C@@H]1C/C=C/CC/C=C/C(=O)Cc2c(Cl)c(O)cc(O)c2C(=O)O1 [pochonin D, reference compound]
IC50 (HSP90): 0.08 µM
inhibition in a panel of 24 kinase (panel of 24 kinase): no significant activity
